Reference: patent publication US10837044B2, “Automated method for analyzing and interpreting an antimicrobial susceptibility” (FONDATION MEDITERRANEE INFECTION, priority 2014, dated 2020)

Tests used:
Assay in all cases: antibiogram by diffusion on Mueller-Hinton agar with antibiotic wafers
Assay type in all cases: cell-based
Pseudomonas aeruginosa = conditions: Table C1, six wafers, disk loads of Table B
Method: (§1) The inoculum was prepared by making a suspension of bacteria directly from colonies put into solution in tubes of sterile water so that the solution presented accurate opacity as determined with a spectrophotometer equivalent to the opacity of a 0.5 standard in the McFarland range. This bacterial suspension concentration is standardized since a more concentrated inoculum would lead to smaller diameters for the inhibition zone, and vice versa.
(§2) The inoculum corresponds to concentrations of about 10^8 CFU/mL for Escherichia coli, Klebsiella pneumoniae, Proteus mirabilis, Klebsiella oxytoca, Enterobacter cloacea, Enterobacter aerogenes, Entercoccus faecalis, Pseudomonas aeruginosa, Staphylococcus aureus, and Staphylococcus epidermidis. These are the ten species bacteria that are encountered the most frequently in human pathologies.
(§3) 1.2) The bacterial sample was deposited on a solid culture medium in a petri dish having a diameter of 90 mm or in a square dish having a side of 120 mm, the medium being constituted by a Mueller-Hinton agar specific for (EUCAST) antibiograms. Ideally, it should be used in the 15 minutes (min) following preparation of the suspension.
(§4) Seeding was done by the method of diffusion on an agar medium by flooding in which excess bacterial suspension was added to the Mueller-Hinton agar. After homogenizing, excess liquid was discarded in order to avoid over-inoculating the dishes. It is necessary to wait beforehand for the surface of the agar to be dry in order to eliminate any trace of moisture encouraging bacterial invasion.
(§5) The disks of the antibiotic wafers were deposited within 15 min after inoculating the agar. The antibiotic impregnated disks were deposited using an automatic dispenser that placed the disks firmly on the surface of the inoculated and dried agar. The number of disks deposited per dish was limited because of inhibition zone overlap and in order to limit interference between antibiotics. It is important for the inhibition diameters to be measurable. The antibiograms were then incubated at 37° C. for 18 hours (h) to 24 h.
(§6) The antibiotic wafers were made of high quality absorbent paper with a diameter of 6 mm and they were impregnated with antibiotics at concentrations in the range 1 micrograms (μg) to 300 μg approximately, depending on the antibiotic.
(§7) In the examples below, reference disks were used as sold by the suppliers i2a (Montpellier, France), BD (Becton Dickinson, USA), Bio-Rad (Hercules, USA), Biomerieux (Marcy l′Etoile, France) containing the following antibiotics and carrying the following codes and the following doses: AMX (amoxicillin) 25 μg: AMC (amoxicillin-clavulanic acid) 20 μg-10 μg; GM for gentamicin, 15 μg; SXT (trimethoprim-sulfamethoxazole) 1.25/23.75 μg; TIC (ticarcillin) 75 μg; TCC (ticarcillin-clavulanic acid) […]; TZP (piperacillin-tazobactam) 75/10 μg; CAZ (ceftazidime) 30 μg; IMP or IPM (imipeneme) 10 μg; COL (colistin) 50 μg; FOX (cefoxitine) 30 μg; VAN (vancomycin) 30 μg; TEC (teicoplanin) 30 μg; CLI or DA (clindamycin) 2 μg; CRO (ceftriaxone) 30 μg; CIP (ciprofloxacin) 5 μg; OFX (ofloxacin) 5 μg; CTX (cefotaxime) 5 μg; AN or AK (amikacin) 30 μg; TM (tobramycin) 10 μg; FOX (cefoxitine) 30 μg; ATM (aztreonam) 30 μg; ERT (ertapenem) 10 μg; FF (fosfomycin) 200 μg; DO (doxycycline) 30 μg; K (kanamycin) 1000 μg; L (lincomycin) 15 μs; LNZ (linezolid) 10 μg; AN (nalidixic acid) 30 μg; NOR (norfloxacin) 10 μg; PT (pristinamycin) 15 μg; RA (rifampicin) 5 μg; and E (erythromycin) 15 μg.

Klebsiella pneumoniae = conditions: for resistance (I, R) or sensitivity (S): Table C1, six wafers, disk loads of Table B; for resistant (I/R) or sensitive (S): Table C2, sixteen wafers, square dish
Method: as §1, §2, §3, §4, §5, §6, §7

Proteus mirabilis = conditions: Table C1, six wafers, disk loads of Table B
Method: as §1, §2, §3, §4, §5, §6, §7

Enterobacter aerogenes = conditions: Table C1, six wafers, disk loads of Table B
Method: as §1, §2, §3, §4, §5, §6, §7

Enterobacter cloacea = conditions: Table C1, six wafers, disk loads of Table B
Method: as §1, §2, §3, §4, §5, §6, §7

Escherichia coli = conditions: for resistance (I, R) or sensitivity (S): Table C1, disk loads of Table B; for resistant (I/R) or sensitive (S): Table C2, square dish
Method: as §1, §2, §3, §4, §5, §6, §7

Klebsiella oxytoca = conditions: Table C1; K. oxytoca phenotype Wild; six wafers, disk loads of Table B
Method: as §1, §2, §3, §4, §5, §6, §7

[1] = P. aeruginosa Abnormal phenotype
[2] = P. aeruginosa phenotype Carbapenemase
[3] = P. aeruginosa phenotype Penicillinase
[4] = P. aeruginosa phenotype Selective imipenem permeability
[5] = K. pneumoniae phenotype Carbapenemase
[6] = K. pneumoniae phenotype Hl cephalosporinase
[7] = K. pneumoniae phenotype Hl penicillinase
[8] = K. pneumoniae phenotype Ll penicillinase

| Molecule | resistance (I, R) or sensitivity (S) (Pseudomonas aeruginosa; [1]) | resistance (I, R) or sensitivity (S) (Pseudomonas aeruginosa; P. aeruginosa phenotype BSBL) | resistance (I, R) or sensitivity (S) (Pseudomonas aeruginosa; [2]) | resistance (I, R) or sensitivity (S) (Pseudomonas aeruginosa; [3]) | resistance (I, R) or sensitivity (S) (Pseudomonas aeruginosa; [4]) | resistance (I, R) or sensitivity (S) (Pseudomonas aeruginosa; P. aeruginosa phenotype Wild) | resistance (I, R) or sensitivity (S) (Klebsiella pneumoniae; K. pneumoniae phenotype BSBL) | resistance (I, R) or sensitivity (S) (Klebsiella pneumoniae; [5]) | resistance (I, R) or sensitivity (S) (Klebsiella pneumoniae; [6]) | resistance (I, R) or sensitivity (S) (Klebsiella pneumoniae; [7]) | resistance (I, R) or sensitivity (S) (Klebsiella pneumoniae; [8]) | resistance (I, R) or sensitivity (S) (Klebsiella pneumoniae; K. pneumoniae phenotype Wild) | resistance (I, R) or sensitivity (S) (Enterobacter aerogenes; E. aerogenes phenotype BSBL) | resistance (I, R) or sensitivity (S) (Enterobacter aerogenes; E. aerogenes phenotype Wild) | resistance (I, R) or sensitivity (S) (Enterobacter cloacea; E. cloacae phenotype BSBL) | resistance (I, R) or sensitivity (S) (Enterobacter cloacea; E. cloacae phenotype Wild) | resistance (I, R) or sensitivity (S) (Klebsiella oxytoca) | further results |
| --- | --- | --- | --- | --- | --- | --- | --- | --- | --- | --- | --- | --- | --- | --- | --- | --- | --- | --- |
| C[C@@H](O)[C@H]1C(=O)N2C(C(=O)O)=C(SCCN=CN)C[C@H]12 [IMP, imipenem] | S | S | R | S | I | S | S | R | S | S | S | S | S | S | S | S | S | resistant (I/R) or sensitive (S) (Klebsiella pneumoniae; K. pneumoniae phenotype Cephalosporinase + R to aminosides + R to cotrimoxazole): S; resistant (I/R) or sensitive (S) (Klebsiella pneumoniae; K. pneumoniae phenotype Wild): S; resistance (I, R) or sensitivity (S) (Proteus mirabilis; P. mirabilis phenotype Hl cephalosporinase): S; resistance (I, R) or sensitivity (S) (Proteus mirabilis; P. mirabilis phenotype Hl penicillinase): S; resistance (I, R) or sensitivity (S) (Proteus mirabilis; P. mirabilis phenotype Inhibitor resistant penicillinase): S; resistance (I, R) or sensitivity (S) (Proteus mirabilis; P. mirabilis phenotype Ll penicillinase): S; resistance (I, R) or sensitivity (S) (Proteus mirabilis; P. mirabilis phenotype Wild): S; resistance (I, R) or sensitivity (S) (Escherichia coli; E. coli phenotype BSBL, six wafers): S; resistance (I, R) or sensitivity (S) (Escherichia coli; E. coli phenotype Carbapenemase, six wafers): R; resistance (I, R) or sensitivity (S) (Escherichia coli; E. coli phenotype Hl cephalosporinase, six wafers): S; resistance (I, R) or sensitivity (S) (Escherichia coli; E. coli phenotype Hl penicillinase, six wafers): S; resistance (I, R) or sensitivity (S) (Escherichia coli; E. coli phenotype Inhibitor resistant penicillinase, six wafers): S; resistance (I, R) or sensitivity (S) (Escherichia coli; E. coli phenotype Ll penicillinase, six wafers): S; resistance (I, R) or sensitivity (S) (Escherichia coli; E. coli phenotype Wild, six wafers in a circle): S; resistant (I/R) or sensitive (S) (Escherichia coli; E. coli phenotype Cephalosporinase + R to fluoroquinolones + R to cotrimoxazole + partial R to aminosides, sixteen wafers): S; resistant (I/R) or sensitive (S) (Escherichia coli; E. coli phenotype Hl penicillinase + R to fluoroquinolones + R to cotrimoxazole + partial R to aminosides, sixteen wafers): S; resistant (I/R) or sensitive (S) (Escherichia coli; E. coli phenotype Wild, sixteen wafers in a rectangular grid): S |
| piperacillin-tazobactam [TZP] | R/S | I/R | R | I/S | S | S | R/I | R | I/R | S/I/R | R | S | R | S | R | S | S | – |
